Source: patent publication US10689362B2, “Quinoxaline compounds as type III receptor tyrosine kinase inhibitors” (Development Center for Biotechnology, priority 2016, dated 2020)

Tests used:
PDGFRβ kinase = PDGFRβ kinase (Homo sapiens (Human), UniProt P09619); assay: PDGFRβ kinase assay (radiometric); format: biochemical; conditions: bound
How it was run: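 Radiometric assay: recombinant PDGFRβ with poly(Glu4:Tyr1) in MOPS pH 7.0 buffer containing Mg2+/Mn2+, 10 μM ATP plus [33P]-ATP, and compound at 4% DMSO final. Incubated 60 min at 30° C, stopped with phosphoric acid, filter-captured and scintillation-counted. IC50 from curve fitting.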

CSF-1R kinase = CSF-1R kinase (Homo sapiens (Human), UniProt P07333); assay: CSF-1R kinase assay (AlphaScreen); format: biochemical; conditions: class symbol
CSF-1R kinase, sequence (P07333 20-972): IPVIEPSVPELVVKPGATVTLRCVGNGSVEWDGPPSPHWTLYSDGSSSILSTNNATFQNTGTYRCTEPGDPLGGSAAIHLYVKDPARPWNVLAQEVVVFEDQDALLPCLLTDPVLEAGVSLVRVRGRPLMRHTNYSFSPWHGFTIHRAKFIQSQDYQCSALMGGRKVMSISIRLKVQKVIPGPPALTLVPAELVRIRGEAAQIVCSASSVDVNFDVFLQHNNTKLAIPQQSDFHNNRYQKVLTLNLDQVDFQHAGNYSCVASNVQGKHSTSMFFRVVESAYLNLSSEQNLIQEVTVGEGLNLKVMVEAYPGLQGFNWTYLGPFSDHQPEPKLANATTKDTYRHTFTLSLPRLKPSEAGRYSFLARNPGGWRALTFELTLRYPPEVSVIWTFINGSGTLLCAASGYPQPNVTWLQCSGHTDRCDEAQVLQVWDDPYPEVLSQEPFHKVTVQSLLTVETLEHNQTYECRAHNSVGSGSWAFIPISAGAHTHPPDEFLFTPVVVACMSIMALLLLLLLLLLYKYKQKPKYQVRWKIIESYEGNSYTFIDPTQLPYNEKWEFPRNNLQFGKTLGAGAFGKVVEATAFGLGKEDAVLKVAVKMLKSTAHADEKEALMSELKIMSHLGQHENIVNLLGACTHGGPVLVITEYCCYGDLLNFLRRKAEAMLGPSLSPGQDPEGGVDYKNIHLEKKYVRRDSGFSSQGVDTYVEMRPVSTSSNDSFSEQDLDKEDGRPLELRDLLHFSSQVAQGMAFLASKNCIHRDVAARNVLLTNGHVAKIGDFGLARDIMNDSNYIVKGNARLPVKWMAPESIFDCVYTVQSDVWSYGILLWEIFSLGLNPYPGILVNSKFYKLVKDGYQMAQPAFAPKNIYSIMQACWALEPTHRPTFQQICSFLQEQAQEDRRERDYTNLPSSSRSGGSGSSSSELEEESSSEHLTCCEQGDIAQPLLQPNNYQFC
Procedure: Inhibition of CSF-1R kinase activity by a test compound disclosed herein was estimated by AlphaScreen (PerkinElmer). […] Reactions were incubated at 30° C. for 45 min and stopped by adding 5 μL of 50 mM EDTA. Analysis of resulting product using an AlphaScreen kit, and counted with Enspire Alpha (PerkinElmer). […] The IC50 values of quinoxaline compounds of this invention against CSF-1R kinase were determined using the GraphPad Prism 5 software.

[1] = test system: Kasumi-1 human acute myeloid leukemia cell with c-KIT N822K activating mutation; assay: Kasumi-1 cell proliferation assay (CellTiter-96); format: cell-based; conditions: Cytotoxicity, Kasumi-1 cells, 72 hours
How it was run: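 After 72 h of treatment with a compound dilution series, growth of c-KIT N822K-driven Kasumi-1 cells (64000 per well, plated the day before) was read as 490 nm absorbance. This followed a 4 h incubation with CellTiter96 AQueous One reagent.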

[2] = test system: osteoclast precursors (osteoclast differentiation); assay: Osteoclast tartrate-resistant acid phosphatase assay; format: cell-based; conditions: 168 h, at 1 μM treatment, 7 days, RANKL and M-CSF, read-out: inhibition activity against osteoclast differentiation
Procedure: A serial dilution of test compound was dispensed into a 96-well black clear bottom plate. Compound was diluted by the addition of DMEM media supplemented with 10% characterized fetal bovine serum. Diluted compound was transferred to a 96-well black clear bottom plate. Three thousand osteoclast precursors (Lonza, Walkersville, Md.) were added per well in growth medium containing Receptor Activator of Nuclear Factor Kappa-beta ligand (RANKL) and M-CSF. […] At the end of the incubation period, 50 μL of supernatant from each well was transferred to a clear 96-well plate. Tartrate-resistant acid phosphatase activity in the supernatant samples was determined using an acid phosphatase assay kit (Sigma, St. Louis, Mo.). Absorbance was measured at 550 nm using a plate reader. […] The Inhibition activity against osteoclast differentiation for each compound at 1 μM treatment in duplicate was measured.

[3] = test system: THP-1 human acute monocytic leukemia cell harboring NRAS G12D mutation; assay: THP-1 cell proliferation assay (counter screen, CellTiter-96); format: cell-based; conditions: Cytotoxicity, THP-1 cells (counter screen), 72 hours
How it was run: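 Growth inhibition read as 490 nm absorbance after 4 h with CellTiter96 AQueous One reagent, following 72 h compound exposure at rising concentrations. THP-1 (NRAS G12D) cells plated at 5000 per well and left overnight at 37 °C, 5% CO2 before dosing.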

FLT3 kinase = FLT3 kinase (Homo sapiens (Human), UniProt P36888); assay: FLT3 kinase assay (radiometric); format: biochemical; conditions: bound
FLT3 kinase, sequence (P36888 27-993): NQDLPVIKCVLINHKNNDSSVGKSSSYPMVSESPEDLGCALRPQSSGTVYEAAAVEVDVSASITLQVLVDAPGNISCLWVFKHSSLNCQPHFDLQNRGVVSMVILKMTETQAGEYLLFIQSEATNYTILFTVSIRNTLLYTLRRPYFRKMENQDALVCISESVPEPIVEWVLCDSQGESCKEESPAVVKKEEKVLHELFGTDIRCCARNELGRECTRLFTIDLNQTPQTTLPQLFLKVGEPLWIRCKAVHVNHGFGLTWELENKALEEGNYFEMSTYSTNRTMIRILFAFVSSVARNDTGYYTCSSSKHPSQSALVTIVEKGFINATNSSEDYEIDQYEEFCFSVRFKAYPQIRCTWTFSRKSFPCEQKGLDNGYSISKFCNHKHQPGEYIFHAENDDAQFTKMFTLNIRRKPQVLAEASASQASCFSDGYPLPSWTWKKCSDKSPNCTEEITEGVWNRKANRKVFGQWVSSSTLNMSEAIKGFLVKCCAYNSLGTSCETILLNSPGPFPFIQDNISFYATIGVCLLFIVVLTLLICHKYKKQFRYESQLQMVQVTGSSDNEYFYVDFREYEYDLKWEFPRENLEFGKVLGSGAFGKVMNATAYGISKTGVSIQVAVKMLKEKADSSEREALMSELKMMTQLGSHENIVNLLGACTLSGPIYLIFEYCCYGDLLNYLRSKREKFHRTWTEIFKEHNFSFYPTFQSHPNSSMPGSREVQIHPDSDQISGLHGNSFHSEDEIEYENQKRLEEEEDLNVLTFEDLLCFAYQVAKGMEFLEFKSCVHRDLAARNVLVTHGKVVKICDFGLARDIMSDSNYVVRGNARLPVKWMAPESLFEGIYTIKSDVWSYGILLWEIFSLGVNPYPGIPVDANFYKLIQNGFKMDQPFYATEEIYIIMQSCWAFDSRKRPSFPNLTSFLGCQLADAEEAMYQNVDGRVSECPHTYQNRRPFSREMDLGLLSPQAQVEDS
How it was run: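 Recombinant FLT3 (5 ng) phosphorylating poly(Glu4:Tyr1) (2 μg) with 10 μM ATP plus [^33P]-ATP in MOPS pH 7.0 buffer, 4% DMSO final, 60 min at 30° C. Reaction stopped with phosphoric acid, filter-captured and scintillation-counted; IC50 derived from dose-response.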

[4] = test system: MV4-11 human acute myeloid leukemia cell with FLT3-ITD mutation; assay: MV4-11 cell proliferation assay (CellTiter-96); format: cell-based; conditions: Cytotoxicity, MV4-11 cells, 72 hours
How it was run: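 Growth inhibition read as absorbance at 490 nm after 4 hours with CellTiter96 AQueous One reagent. Before that, FLT3-ITD-dependent MV4-11 cells (6500 cells/well, overnight at 37° C., 5% CO2) received a rising compound concentration series for 72 hours.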

[5] = test system: CSF-1-dependent M-NFS-60 mouse myeloid leukemia cell; assay: M-NFS-60 cell proliferation assay (CellTiter-96); format: cell-based; conditions: Cytotoxicity, M-NFS-60 cells, 72 hours
How it was run: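 Growth inhibition was measured as absorbance at 490 nm after 4 h with CellTiter 96 AQueous One reagent. Beforehand, M-NFS-60 cells (2000/well, CSF-1-dependent) were treated with a compound dilution series for 72 h following overnight plating at 37 °C, 5% CO2.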

c-KIT kinase = c-KIT kinase (Homo sapiens (Human), UniProt P10721); assay: c-KIT kinase assay (radiometric); format: biochemical
c-KIT kinase, sequence (P10721 26-976): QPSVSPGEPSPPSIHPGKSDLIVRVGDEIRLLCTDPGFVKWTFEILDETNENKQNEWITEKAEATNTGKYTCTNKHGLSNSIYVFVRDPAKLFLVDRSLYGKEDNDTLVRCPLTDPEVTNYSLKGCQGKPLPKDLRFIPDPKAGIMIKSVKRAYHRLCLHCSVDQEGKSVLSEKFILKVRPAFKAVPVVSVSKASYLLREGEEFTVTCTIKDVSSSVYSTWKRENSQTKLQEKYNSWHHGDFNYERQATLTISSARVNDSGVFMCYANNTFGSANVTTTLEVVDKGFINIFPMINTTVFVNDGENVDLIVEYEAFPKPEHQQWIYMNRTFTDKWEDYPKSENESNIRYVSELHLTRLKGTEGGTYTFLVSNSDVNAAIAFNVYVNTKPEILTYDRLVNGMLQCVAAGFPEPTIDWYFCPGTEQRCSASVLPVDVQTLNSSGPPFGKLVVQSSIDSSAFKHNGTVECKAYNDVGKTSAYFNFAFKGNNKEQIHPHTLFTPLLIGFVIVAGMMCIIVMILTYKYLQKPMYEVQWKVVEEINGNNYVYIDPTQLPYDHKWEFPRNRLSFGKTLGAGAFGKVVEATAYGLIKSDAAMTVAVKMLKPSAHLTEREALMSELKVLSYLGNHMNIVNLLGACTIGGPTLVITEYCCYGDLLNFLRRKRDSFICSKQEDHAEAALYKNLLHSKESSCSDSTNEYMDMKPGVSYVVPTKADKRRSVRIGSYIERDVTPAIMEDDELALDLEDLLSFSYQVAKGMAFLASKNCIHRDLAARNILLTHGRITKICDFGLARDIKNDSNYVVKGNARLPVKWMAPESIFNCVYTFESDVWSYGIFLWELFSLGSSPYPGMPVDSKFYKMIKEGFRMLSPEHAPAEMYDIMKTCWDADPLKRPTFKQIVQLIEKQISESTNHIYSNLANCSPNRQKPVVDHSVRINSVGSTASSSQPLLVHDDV
How it was run: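 Recombinant c-Kit (20 ng) with 2 μg Poly-(Glu4:Tyr1) in MOPS pH 7.0 buffer with MgCl2/MnCl2, 10 μM ATP plus [^33P]-ATP, 4% DMSO final, 60 min at 30° C. Stopped with phosphoric acid, filter-captured and scintillation counted; IC50 from curve fit.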

PDGFRβ kinase, sequence (P09619 33-1106): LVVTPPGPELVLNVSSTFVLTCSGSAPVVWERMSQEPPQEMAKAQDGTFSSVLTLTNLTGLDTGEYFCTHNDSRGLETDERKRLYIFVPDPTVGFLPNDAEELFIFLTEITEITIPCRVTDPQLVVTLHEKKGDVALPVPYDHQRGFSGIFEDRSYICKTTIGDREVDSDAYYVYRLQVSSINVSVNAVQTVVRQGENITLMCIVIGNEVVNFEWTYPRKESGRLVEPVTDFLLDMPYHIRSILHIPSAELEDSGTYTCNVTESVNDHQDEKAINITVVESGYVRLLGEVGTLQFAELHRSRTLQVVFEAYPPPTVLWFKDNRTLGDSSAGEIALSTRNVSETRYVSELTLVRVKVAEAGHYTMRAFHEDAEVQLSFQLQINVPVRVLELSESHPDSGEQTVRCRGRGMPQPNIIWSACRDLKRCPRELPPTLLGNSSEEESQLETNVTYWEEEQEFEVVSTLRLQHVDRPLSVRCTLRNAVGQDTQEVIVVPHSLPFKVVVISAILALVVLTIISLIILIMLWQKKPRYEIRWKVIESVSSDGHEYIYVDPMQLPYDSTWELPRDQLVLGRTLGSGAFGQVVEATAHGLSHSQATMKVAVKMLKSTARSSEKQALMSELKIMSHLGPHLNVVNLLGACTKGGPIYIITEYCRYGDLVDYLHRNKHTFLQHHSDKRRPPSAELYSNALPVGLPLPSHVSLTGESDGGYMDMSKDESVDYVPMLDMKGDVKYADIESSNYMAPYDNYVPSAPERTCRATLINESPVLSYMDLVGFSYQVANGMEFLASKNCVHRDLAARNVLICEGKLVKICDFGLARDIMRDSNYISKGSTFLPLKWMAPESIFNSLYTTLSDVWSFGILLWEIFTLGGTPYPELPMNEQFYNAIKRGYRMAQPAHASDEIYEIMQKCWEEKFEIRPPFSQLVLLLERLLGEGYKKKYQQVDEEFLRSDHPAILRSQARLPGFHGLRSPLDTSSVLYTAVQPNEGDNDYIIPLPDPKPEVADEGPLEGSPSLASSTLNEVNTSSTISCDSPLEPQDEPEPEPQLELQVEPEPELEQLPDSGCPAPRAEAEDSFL

Structure (SMILES) | IC50 (PDGFRβ kinase) | IC50 (CSF-1R kinase) | IC50 [1] | inhibition at 1 µM [2] | IC50 [3] | IC50 (FLT3 kinase) | IC50 [4] | IC50 [5] | IC50 (c-KIT kinase; class symbol) | IC50 (c-KIT kinase; bound)
COc1ccc(COc2ccc(Nc3ccc4ncc(NC5CCN(Cc6ccccc6)CC5)nc4c3C#N)cc2OC)cc1 [Example 77, 3-((1-benzylpiperidin-4-yl)amino)-6-((3-methoxy-4-((4-methoxybenzyl)oxy)phenyl)amino)quinoxaline-5-carbonitrile] | > 1 µM | < 0.1 µM | 1 to 10 µM | > 50% | 1 to 10 µM | > 1 µM | 1 to 10 µM | 0.3 to 1 µM | 0.3 to 1 µM | 
COc1ccc(COc2ccc(Nc3ccc4ncc(N5CCOCC5)nc4c3C#N)cc2OC)c(F)c1 [Example 94, 6-((4-((2-fluoro-4-methoxybenzyl)oxy)-3-methoxyphenyl)amino)-3-morpholinoquinoxaline-5-carbonitrile] | > 1 µM | < 0.1 µM | 0.3 to 1 µM | > 50% | > 10 µM | > 1 µM | > 10 µM | < 0.3 µM | < 0.1 µM | 
COc1ccc(COc2ccc(Nc3ccc4ncc(N5CCC(C)CC5)nc4c3C#N)cc2OC)cn1 [Example 69, 6-((3-methoxy-4-((6-methoxypyridin-3-yl)methoxy)phenyl)amino)-3-(4-methylpiperidin-1-yl)quinoxaline-5-carbonitrile] | > 1 µM | < 0.1 µM | > 10 µM | > 50% | > 10 µM | > 1 µM | > 10 µM | 0.3 to 1 µM |  | > 1 µM
CNc1cnc2ccc(Nc3ccc(OCc4ccc(OC)cc4)c(OC)c3)cc2n1 [Example 25, N^7-(3-methoxy-4-((4-methoxybenzyl)oxy)phenyl)-N^2-methylquinoxaline-2,7-diamine] | > 1 µM | < 0.1 µM | 0.3 to 1 µM | > 50% | 1 to 10 µM | > 1 µM | 1 to 10 µM | < 0.3 µM | < 0.1 µM | 
COCc1ccc(COc2ccc(Nc3ccc4ncc(N5CCOCC5)nc4c3C#N)cc2OC)cn1 [Example 107, 6-((3-methoxy-4-((6-(methoxymethyl)pyridin-3-yl)methoxy)phenyl)amino)-3-morpholinoquinoxaline-5-carbonitrile] | > 1 µM | < 0.1 µM | 0.3 to 1 µM | > 50% | > 10 µM | > 1 µM | 1 to 10 µM | < 0.3 µM | 0.1 to 0.3 µM | 
COc1ccc(COc2ccc(Nc3ccc4ncc(N5CCC5)nc4c3C#N)cc2OC)cc1 [Example 83, 3-(azetidin-1-yl)-6-((3-methoxy-4-((4-methoxybenzyl)oxy)phenyl)amino)quinoxaline-5-carbonitrile] | > 1 µM | < 0.1 µM | < 0.3 µM | > 50% | > 10 µM | > 1 µM | > 10 µM | < 0.3 µM | < 0.1 µM | 
COc1cc(Nc2ccc3ncc(N4CCNCC4)nc3c2C#N)ccc1OCc1ccc(C)nc1 [Example 67, 6-((3-methoxy-4-((6-methylpyridin-3-yl)methoxy)phenyl)amino)-3-(piperazin-1-yl)quinoxaline-5-carbonitrile] | > 1 µM | < 0.1 µM | 1 to 10 µM | > 50% | 1 to 10 µM | > 1 µM | 1 to 10 µM | < 0.3 µM | < 0.1 µM | 
COc1cc(Nc2ccc3ncc(N4CCOCC4)nc3c2C#N)ccc1OCc1ccc2c(c1)OCO2 [Example 81, 6-((4-(benzo[d][1,3]dioxol-5-ylmethoxy)-3-methoxyphenyl)amino)-3-morpholinoquinoxaline-5-carbonitrile] | > 1 µM | < 0.1 µM | > 10 µM | > 50% | > 10 µM | > 1 µM | > 10 µM | < 0.3 µM | 0.3 to 1 µM | 
